Measured values as given in the supplement of paper PMC10331698.
± gives the standard deviation of the averaged measurements.

Legend:
Test in all cases: level (log10 ratio to DMSO vehicle control); higher = higher biomarker level / cell amount than vehicle control
Pentafluoropropionamide = compound: NC(=O)C(F)(F)C(F)(F)F [Pentafluoropropionamide]; details: in DMSO
Protocol: (§1)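 BioMAP Diversity Plus panel of 12 human primary cell co-culture systems (3C, 4H, LPS, SAg, BT, BF4T, BE3C, CASM3C, HDF3CGF, KF3CT, MyoF, Mphg). Compounds were added 1 h before stimulation and left for 24 h (MyoF 48 h; BT 72 h for soluble read-outs or 6 d for IgG). Biomarkers were read by ELISA, cytotoxicity by SRB, PBMC viability and proliferation by Alamar Blue. Each well value was divided by the mean of 8 DMSO control wells on the same plate and log10 transformed; duplicate blinded samples were tested at 4 concentrations.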

[1] = compound: OCCCC(F)(F)C(F)(F)C(F)(F)C(F)(F)C(F)(F)C(F)(F)C(F)(F)F [7:3 Fluorotelomer alcohol]; details: 6700 nM; in DMSO
Protocol: as §1

[2] = compound: O=S(=O)(O)C(F)(F)C(F)(F)C(F)(F)C(F)(F)C(F)(F)C(F)(F)F [Perfluorohexanesulfonic acid]; details: in DMSO
Protocol: as §1

[3] = compound: O=C(O)C(F)(F)C(F)(F)C(F)(F)C(F)(F)C(F)(F)C(F)(F)C(F)(F)C(F)F [9-H-Perfluorononanoic acid]; details: in DMSO
Protocol: as §1

[4] = compound: OCCC(F)(F)C(F)(F)C(F)(F)C(F)(F)C(F)(F)C(F)(F)F [6:2 Fluorotelomer alcohol]; details: in DMSO
Protocol: as §1

[5] = compound: C=CC(=O)OCC(F)(F)C(F)(F)C(F)(F)C(F)(F)C(F)(F)C(F)(F)C(F)(F)F [1H,1H-Perfluorooctyl acrylate]; details: in DMSO
Protocol: as §1

[6] = compound: FC(F)(F)C(F)(F)C(F)(F)C(F)(F)C(F)(F)CCI [1-Iodo-1H,1H,2H,2H-perfluoroheptane]; details: in DMSO
Protocol: as §1

Test System	level (log10) (Pentafluoropropionamide; 6700 nM)	level (log10) (Pentafluoropropionamide; 20000 nM)	level (log10) (Pentafluoropropionamide; 60000 nM)	level (log10) [1]	level (log10) ([2]; 6700 nM)	level (log10) ([2]; 20000 nM)	level (log10) ([2]; 60000 nM)	level (log10) ([3]; 6700 nM)	level (log10) ([3]; 20000 nM)	level (log10) ([3]; 60000 nM)	level (log10) ([4]; 6700 nM)	level (log10) ([4]; 20000 nM)	level (log10) ([5]; 6700 nM)	level (log10) ([5]; 20000 nM)	level (log10) ([5]; 60000 nM)	level (log10) ([6]; 6700 nM)	level (log10) ([6]; 20000 nM)	level (log10) ([6]; 60000 nM)
BT:Secreted IgG	0.0065 ± 0.039	-0.0075 ± 0.046	0.0155 ± 0.0064	-0.0105 ± 0.028	-0.0295 ± 0.0064	0.0015 ± 0.0064	0.0085 ± 0.0035	0.038 ± 0.0071	-0.011 ± 0.031	0.0485 ± 0.019	0.02	0.0195 ± 0.0035	-0.0085 ± 0.015	-0.0455 ± 0.057	-0.132 ± 0.016	-0.006 ± 0.016	-0.002 ± 0.062	-0.0185 ± 0.08
BT:sIL-2	0.0375 ± 0.0092	0.002 ± 0.03	0.038 ± 0.017	-0.037 ± 0.15	-0.059 ± 0.031	0.0015 ± 0.035	-0.001 ± 0.027	-0.0245 ± 0.057	0.006 ± 0.05	0.0195 ± 0.032	-0.008 ± 0.057	-0.0135 ± 0.019	-0.0455 ± 0.11	0.031 ± 0.028	-0.0025 ± 0.042	-0.068 ± 0.0042	0.027 ± 0.047	-0.15 ± 0.073
BT:sIL-6	0.055 ± 0.027	0.017 ± 0.023	-0.0095 ± 0.052	-0.0125 ± 0.073	0.046 ± 0.052	0.0105 ± 0.036	-0.056 ± 0.061	-0.0315 ± 0.0064	0.06 ± 0.064	-0.0215 ± 0.079	0.0115 ± 0.032	-0.038 ± 0.028	-0.088 ± 0.0042	-0.103 ± 0.031	-0.242 ± 0.045	-0.0395 ± 0.043	0.0425 ± 0.033	-0.077 ± 0.0099
BT:sIL-17A	0.0075 ± 0.1	-0.031 ± 0.051	0.0105 ± 0.015	-0.0585 ± 0.17	0.135 ± 0.11	-0.0225 ± 0.25	-0.133	0.0095 ± 0.087	-0.02 ± 0.024	-0.126 ± 0.0099	0.0375 ± 0.015	-0.0005 ± 0.11	-0.242 ± 0.26	-0.141 ± 0.05	-0.409 ± 0.18	-0.269 ± 0.12	0.037 ± 0.15	-0.22 ± 0.067
BT:sIL-17F	-0.02 ± 0.085	-0.03	0.0275 ± 0.0064	0.0115 ± 0.056	0.0235 ± 0.09	0.0375 ± 0.018	-0.063	0.0055 ± 0.0064	0.0945 ± 0.035	0.031 ± 0.0085	-0.087 ± 0.17	-0.146 ± 0.18	-0.0975 ± 0.16	-0.324 ± 0.11	-0.372 ± 0.063	-0.0855 ± 0.011	0.0525 ± 0.033	-0.0455 ± 0.16
BT:sTNF-alpha	0.0135 ± 0.0078	0.0225 ± 0.081	-0.0025 ± 0.0092	0.009 ± 0.028	0.024 ± 0.13	-0.011 ± 0.034	-0.0495 ± 0.044	0.032 ± 0.069	0.076 ± 0.014	0.032 ± 0.04	0.071 ± 0.028	-0.0445 ± 0.015	-0.029 ± 0.027	-0.0585 ± 0.044	-0.19 ± 0.043	-0.02 ± 0.038	0.063 ± 0.055	-0.114 ± 0.052
LPS:CCL2/MCP-1	-0.0035 ± 0.011	-0.017 ± 0.0028	0.008 ± 0.04	-0.026 ± 0.023	0.0045 ± 0.0064	0.0045 ± 0.0064	0.028 ± 0.024	-0.0165 ± 0.005	-0.0055 ± 0.0021	0.0405 ± 0.025	0.002 ± 0.0085	-0.022 ± 0.0071	-0.003 ± 0.017	-0.0045 ± 0.005	0.005 ± 0.0099	-0.013 ± 0.013	-0.013 ± 0.021	-0.0045 ± 0.021
